Measured values from patent publication US12116424B2, “Compounds and compositions for modulating Listeria virulence” (priority 2021, dated 2024).
Read-outs that look alike come from different tables or passages of the source. Where a SMILES comes first, the peptide text is derived from it. Bridges are numbered along the chain shown (N, C = ends). [ ]: non-standard residue; d: D form. dDap = NC[C@@H](N)C(=O)O

Target: L. monocytogenes AgrC (Listeria monocytogenes serovar 1/2a, UniProt Q8YAR5)
Test: Fluorescence (agr-GFP) reporter agonism assay, ΔagrD reporter strain
Assay type: cell-based
Design: Emax: dose or concentration left out as unconfirmed
Conditions: for agonism activity (in words): ΔagrD reporter
From the text: Construction of Listeria agr Reporter Strains. A gene block was designed and purchased from Integrated DNA Technologies to contain an EagI recognition site, the PII promoter of the agr system, the 3′ UTR of hly, super folder GFP, and a SaII recognition site. The gene block was digested with EagI and SaII, cloned into an EagI/SaII-cut pAM401 plasmid resulting in the plasmid pAM401-KW1, and then transformed into E. coli XL1-Blue competent cells. The insertion into pAM401 was confirmed using Kapa polymerase and primers DAP337 and DAP338, and additional confirmation via commercial sequencing. Purified plasmid was transformed into the conjugative E. coli S17 strain, which was used to conjugate to EGD-e and EGD-e ΔagrD to generate the agr-GFP reporter strains EGD-e:pAM401-KW1 and EGD-e ΔagrD:pAM401-KW1. Conjugation was verified using primers DAP337 and DAP338.
Fluorescence reporter assay protocol. For QS (agr) reporter assays, peptide stock solutions in DMSO (1 mM) were serially diluted in DMSO, and 2 μL of solution was added to each well in a black 96-well plate (polystyrene microtiter plate, Costar). Agonism assays utilized the ΔagrD reporter strain, with 2 μL of 100 μM AIP (final concentration 1 μM) as a positive control and 2 μL of DMSO as a negative control. Antagonism assays utilized the EGD-e reporter strain, with 2 μL of DMSO as a positive control. In both assays, wells containing only BHI media served as negative controls for normalization. An overnight culture of bacteria was diluted 1:50 in fresh BHI, then 198 μL were transferred to each well (excluding the media control wells). Plates were then incubated at 37° C. for 24 hours with shaking at 200 rpm. Fluorescence of GFP (excitation at 500 nm, emission at 540 nm) and OD600 of each well was measured using BioTek Synergy 2 plate reader. Measurements were processed by subtracting background fluorescence (BHI media), correcting by OD600, and the normalizing using the 1 μM AIP or the DMSO control for the agonism and antagonism assays, respectively. Non-linear regression curves were fitted to the data sets in GraphPad Prism 7 by using variable slope (four-parameter) dose-response analysis to obtain potency, efficacy, and statistical information about the activity of tested peptides. Each peptide was tested with three technical replicates and three biological replicates. All data derived from fluorescent reporter strains are represented with data points signifying the mean and error bars signifying the standard deviation from all replicates.
Preparation and Validation of Listeria agr Reporter Strains. In order to facilitate profiling the native AIP and its analogs for agr activity, L. monocytogenes agr GFP reporters were designed and constructed as described above (see Materials and General Methods). Briefly, a plasmid containing the agr promoter region upstream of gfp was transformed into wild-type (EGD-e) and ΔagrD L. monocytogenes strains. The wild-type reporter naturally produces its own AIP and is able to activate AgrC, which may subsequently phosphorylate AgrA for productive binding to DNA and triggering the production of GFP (FIG. 1A). The ΔagrD reporter, lacking the ability to produce its own AIP and thereby activate AgrC, is unable to trigger substantial production of GFP. However, adding exogenous AIP to the ΔagrD reporter results in an increase of fluorescence, indicating agr activity has been restored.

[1] = read-out: Max Activation Observed

L. monocytogenes AgrC, sequence (Q8YAR5 entry or part of it): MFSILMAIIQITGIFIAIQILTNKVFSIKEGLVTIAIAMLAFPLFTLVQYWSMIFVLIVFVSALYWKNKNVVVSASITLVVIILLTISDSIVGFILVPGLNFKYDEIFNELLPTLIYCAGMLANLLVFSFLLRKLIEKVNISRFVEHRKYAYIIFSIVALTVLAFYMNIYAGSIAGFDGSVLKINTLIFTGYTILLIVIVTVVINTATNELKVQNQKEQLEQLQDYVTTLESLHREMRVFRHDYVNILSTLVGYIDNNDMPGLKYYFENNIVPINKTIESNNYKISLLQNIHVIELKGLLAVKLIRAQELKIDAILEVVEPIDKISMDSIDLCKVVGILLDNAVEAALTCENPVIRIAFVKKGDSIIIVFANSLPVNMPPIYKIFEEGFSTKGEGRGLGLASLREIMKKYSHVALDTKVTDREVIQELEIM

SMILES	Emax (read-out: Max Activation)	Emax [1]	also measured
CSCC[C@@H]1NC(=O)[C@H](Cc2ccccc2)NC(=O)[C@@H](NC(=O)[C@H](C)NC(=O)[C@H](CCCCN)NC(=O)[C@H](CO)NC(=O)[C@H](CCSC)NC(=O)[C@@H](N)CO)CSC(=O)[C@H](C(C)C)NC(=O)[C@H](Cc2ccccc2)NC1=O [Compound 10-mer, S-M-S-K-A-(C-F-M-F-V)] (H-SMSKACFMFV; thioester 6-C; N-terminus assumed)	110%	–	–
CC(C)[C@@H]1NC(=O)[C@H](Cc2ccccc2)NC(=O)[C@@H](C)NC(=O)[C@H](Cc2ccccc2)NC(=O)[C@@H](NC(=O)[C@H](C)N)CSC1=O [AIP M4dA, A-(C-F-dA-F-V)] (H-ACF[dA]FV; thioester 2-C; N-terminus assumed)	–	82%	improved potency (agonism, relative to AIP M4A): about four-fold
CSCC[C@@H]1NC(=O)[C@H](Cc2ccccc2)NC(=O)[C@@H](NC(=O)[C@H](C)NC(=O)[C@H](CCCCN)NC(=O)[C@H](CO)NC(=O)[C@@H](N)CCSC)CSC(=O)[C@H](C(C)C)NC(=O)[C@H](Cc2ccccc2)NC1=O [Compound 9-mer, M-S-K-A-(C-F-M-F-V)] (H-MSKACFMFV; thioester 5-C; N-terminus assumed)	93.6%	–	–
CC(C)[C@H](NC(=O)[C@H](CO)NC(=O)[C@@H](N)CC(=O)O)C(=O)N[C@H]1CSC(=O)[C@H](Cc2ccccc2)NC(=O)[C@H](Cc2ccc(O)cc2)NC(=O)[C@H](CO)NC(=O)[C@H](C)NC1=O [Se AIP-I, D-S-V-(C-A-S-Y-F), reference compound] (H-DSVCASYF; thioester 4-C)	8.65%	–	–
CSCC[C@@H]1NC(=O)[C@H](CO)NC(=O)[C@@H](NC(=O)[C@H](C)N)CSC(=O)[C@H](C(C)C)NC(=O)[C@H](Cc2ccccc2)NC1=O [Lm AIP F3S, A-(C-S-M-F-V)] (H-ACSMFV; thioester 2-C; N-terminus assumed)	16.1%	–	–
CC(=O)N[C@H]1CSC(=O)[C@H](C(C)C)NC(=O)[C@H](Cc2ccccc2)NC(=O)CNC(=O)[C@H](C(C)C)NC1=O [L. grandensis tr AIP, Ac-(C-V-G-F-V), reference compound] (Ac-CVGFV; thioester 1-C)	10.1%	–	–
CSCC[C@@H]1NC(=O)[C@H](Cc2ccc(O)cc2)NC(=O)[C@@H](NC(=O)[C@H](C)N)CSC(=O)[C@H](C(C)C)NC(=O)[C@H](Cc2ccccc2)NC1=O [AIP F3Y, A-(C-Y-M-F-V)] (H-ACYMFV; thioester 2-C; N-terminus assumed)	–	47.4%	–
CSCC[C@@H]1NC(=O)[C@H](Cc2ccccc2)NC(=O)[C@H](NC(=O)[C@H](C)N)CNC(=O)[C@H](C(C)C)NC(=O)[C@H](Cc2ccccc2)NC1=O [AIP C2dDap, A-(Dap-F-M-F-V)] (H-A[dDap]FMFV; lactam 2-C; N-terminus assumed)	–	14.3%	agonism activity (in words): little or no agr activation
CSCC[C@@H]1NC(=O)[C@H](Cc2ccccc2)NC(=O)[C@@H](NC(=O)[C@H](CCCCN)NC(=O)[C@@H](N)CCCCN)CSC(=O)[C@H](C(C)C)NC(=O)[C@H](Cc2ccccc2)NC1=O [7-mer A2K, K-K-(C-F-M-F-V)] (H-KKCFMFV; thioester 3-C; N-terminus assumed)	–	64.8%	–
CSCC[C@H]1NC(=O)[C@H](Cc2ccccc2)NC(=O)[C@@H](NC(=O)[C@@H](N)CCCCN)CSC(=O)[C@H](C(C)C)NC(=O)[C@H](Cc2ccccc2)NC1=O [AIP A1K/M4dM, K-(C-F-dM-F-V)] (H-KCF[dM]FV; thioester 2-C; N-terminus assumed)	–	74.1%	–
CSCC[C@@H]1NC(=O)[C@H](Cc2ccccc2)NC(=O)[C@@H](NC(=O)[C@H](C)NC(=O)[C@@H](N)CCCCN)CSC(=O)[C@H](C(C)C)NC(=O)[C@H](Cc2ccccc2)NC1=O [Compound 7-mer, K-A-(C-F-M-F-V)] (H-KACFMFV; thioester 3-C; N-terminus assumed)	64.6%	–	–
CSCC[C@H](NC(=O)[C@H](CO)NC(=O)[C@H](CO)NC(=O)[C@@H](N)CC(=O)O)C(=O)N[C@@H](CO)C(=O)N[C@@H](CCCCN)C(=O)N[C@@H](C)C(=O)N[C@H]1CSC(=O)[C@H](C(C)C)NC(=O)[C@H](Cc2ccccc2)NC(=O)[C@H](CCSC)NC(=O)[C@H](Cc2ccccc2)NC1=O [Compound 12-mer, D-S-S-M-S-K-A-(C-F-M-F-V)] (H-DSSMSKACFMFV; thioester 8-C; N-terminus assumed)	116%	–	–
CSCC[C@@H]1NC(=O)[C@H](Cc2ccccc2)NC(=O)[C@@H](NC(=O)[C@H](C)N)CSC(=O)[C@H](C(C)C)NC(=O)[C@H](Cc2ccc(O)cc2)NC1=O [AIP F5Y, A-(C-F-M-Y-V)] (H-ACFMYV; thioester 2-C; N-terminus assumed)	–	44.4%	–
CSCC[C@H](NC(=O)[C@H](CO)NC(=O)[C@H](CO)NC(=O)[C@H](CC(=O)O)NC(=O)[C@H](C)NC(=O)[C@@H](NC(=O)[C@@H](N)CCCCN)C(C)C)C(=O)N[C@@H](CO)C(=O)N[C@@H](CCCCN)C(=O)N[C@@H](C)C(=O)N[C@H]1CSC(=O)[C@H](C(C)C)NC(=O)[C@H](Cc2ccccc2)NC(=O)[C@H](CCSC)NC(=O)[C@H](Cc2ccccc2)NC1=O [Compound 15-mer, K-V-A-D-S-S-M-S-K-A-(C-F-M-F-V)] (H-KVADSSMSKACFMFV; thioester 11-C; N-terminus assumed)	122%	–	–
CSCC[C@@H]1NC(=O)[C@H](Cc2ccccc2)NC(=O)[C@@H](NC(=O)[C@@H](C)N)CSC(=O)[C@H](C(C)C)NC(=O)[C@H](Cc2ccccc2)NC1=O [AIP A1dA, dA-(C-F-M-F-V)] (H-[dA]CFMFV; thioester 2-C; N-terminus assumed)	–	58.8%	–
CSCC[C@@H]1NC(=O)[C@H](Cc2c[nH]cn2)NC(=O)[C@@H](NC(=O)[C@H](C)N)CSC(=O)[C@H](C(C)C)NC(=O)[C@H](Cc2ccccc2)NC1=O [AIP F3H, A-(C-H-M-F-V)] (H-ACHMFV; thioester 2-C; N-terminus assumed)	–	12.4%	–
CSCC[C@H](NC(=O)[C@H](CO)NC(=O)[C@H](CO)NC(=O)[C@H](CC(=O)O)NC(=O)[C@H](C)N)C(=O)N[C@@H](CO)C(=O)N[C@@H](CCCCN)C(=O)N[C@@H](C)C(=O)N[C@H]1CSC(=O)[C@H](C(C)C)NC(=O)[C@H](Cc2ccccc2)NC(=O)[C@H](CCSC)NC(=O)[C@H](Cc2ccccc2)NC1=O [Compound 13-mer, A-D-S-S-M-S-K-A-(C-F-M-F-V)] (H-ADSSMSKACFMFV; thioester 9-C; N-terminus assumed)	108%	–	–
CSCC[C@H]1NC(=O)[C@H](Cc2ccccc2)NC(=O)[C@@H](NC(=O)[C@H](C)NC(=O)[C@@H](N)CCCCN)CSC(=O)[C@H](C(C)C)NC(=O)[C@H](Cc2ccccc2)NC1=O [7-mer M5dM, K-A-(C-F-dM-F-V)] (H-KACF[dM]FV; thioester 3-C; N-terminus assumed)	–	71.9%	–
CSCC[C@@H]1NC(=O)[C@H](Cc2ccccc2)NC(=O)[C@@H](NC(=O)[C@@H](N)C(C)C)CSC(=O)[C@H](C(C)C)NC(=O)[C@H](Cc2ccccc2)NC1=O [AIP A1V, V-(C-F-M-F-V)] (H-VCFMFV; thioester 2-C; N-terminus assumed)	–	109%	agonism activity (in words): maintained the full activity of the parent AIP with enhanced potency
CSCC[C@@H]1NC(=O)[C@H](Cc2ccccc2)NC(=O)[C@@H](NC(=O)[C@H](C)NC(=O)[C@H](CCCCN)NC(=O)[C@H](CO)NC(=O)[C@H](CCSC)NC(=O)[C@H](CO)NC(=O)[C@@H](N)CO)CSC(=O)[C@H](C(C)C)NC(=O)[C@H](Cc2ccccc2)NC1=O [Compound 11-mer, S-S-M-S-K-A-(C-F-M-F-V)] (H-SSMSKACFMFV; thioester 7-C; N-terminus assumed)	111%	–	–
CSCC[C@@H]1NC(=O)[C@H](Cc2ccccc2)NC(=O)[C@@H](NC(=O)[C@@H]2CCCN2)CSC(=O)[C@H](C(C)C)NC(=O)[C@H](Cc2ccccc2)NC1=O [AIP A1P, P-(C-F-M-F-V)] (H-PCFMFV; thioester 2-C; N-terminus assumed)	–	76.8%	agonism activity (in words): partial agonists with slightly diminished agonistic activity
